For one data set, the target named is T1, HIV protease (Human immunodeficiency virus type 1 group M subtype B, UniProt P04585).
T1 construct: plasmid containing HIV protease under the control of an inducible T7 promoter; made in house; host or cells: E. coli (inclusion bodies, T7 promoter)
Nature of the data set: biochemical. Also on record: species or system HIV-1. To be noted: Ki. The method, then: HIV Protease Inhibition Assay—Spectroscopic Method
Inclusion bodies were solubilized in 8M urea, 50 mM tris pH 8.0. Protease activity was recovered by dilution 20-fold into buffer containing 50 mM sodium acetate pH 5.5, 1 mM EDTA, 10% glycerol and 5% ethylene glycol. Enzyme was used at a final concentration of 1.0-10 ug/ml.
Stock solutions of 10 mM were prepared in DMSO.
All further dilutions were done in DMSO.
What is called Ki is a dissociation constant, usually derived from enzyme kinetics or from competition with a known ligand. Turning to `N#CN=C1N(CC2CCC2)C(Cc2ccccc2)C(O)C(O)C(Cc2ccccc2)N1CC1CCC1` (centres unmarked) [Example 1CK], the Ki was less than 0.01 µM.

Take `CCCN1C(=NC#N)N(CCC)C(Cc2ccccc2)C(O)C(O)C1Cc1ccccc1` (centres unmarked) [Example 1CL]: the Ki lay in the range of 0.01 to 1 µM.

On to `CC(C)CCN1C(=NC#N)N(CCC(C)C)C(Cc2ccccc2)C(O)C(O)C1Cc1ccccc1` (centres unmarked) [Example 1CM], for which the Ki fell in the range of 0.01 to 1 µM.

For the compound `N#CN=C1N(Cc2ccc(CO)cc2)C(Cc2ccccc2)C(O)C(O)C(Cc2ccccc2)N1Cc1ccc(CO)cc1` (centres unmarked) [Example 1CN], the Ki lay in the range of 0.01 to 1 µM.

As to `N#CN=C1N(Cc2cccc(CO)c2)C(Cc2ccccc2)C(O)C(O)C(Cc2ccccc2)N1Cc1cccc(CO)c1` (centres unmarked) [Example 1CO], the Ki was less than 0.01 µM.

`N#CN=C1N(Cc2cccc(C=NO)c2)C(Cc2ccccc2)C(O)C(O)C(Cc2ccccc2)N1Cc1cccc(C=NO)c1` (centres unmarked) [Example 1CQ] yielded an inhibition constant (Ki) of less than 0.01 µM.

Staying with this data set, now noted: Table 2A; read-out: Ki.
Regarding `CC(C)=CCN1C(=O)N(CC=C(C)C)C(Cc2ccccc2)C(O)C(O)C1Cc1ccccc1` (centres unmarked) [Example 2A], the Ki is less than 0.01 µM.

With `O=C1N(CCCc2ccccc2)C(Cc2ccccc2)C(O)C(O)C(Cc2ccccc2)N1CCCc1ccccc1` (centres unmarked) [Example 2B], the Ki lay within 0.01 to 1 µM.

For the compound `C=CCN1C(=O)N(CC=C(C)C)C(Cc2ccccc2)C(O)C(O)C1Cc1ccccc1` (centres unmarked) [Example 2C], the Ki was less than 0.01 µM.

As to `C=CCN1C(=O)N(Cc2ccccc2)C(Cc2ccccc2)C(O)C(O)C1Cc1ccccc1` (centres unmarked) [Example 2G], the Ki is less than 0.01 µM.

Still in this data set, the particulars now being: second table headed Table 2A; read-out: Ki.
With `CC(C)=CCN1C(=O)N(CC=C(C)C)C(Cc2ccccc2)C(O)C(O)C1Cc1ccccc1` (centres unmarked) [Example 2A], the Ki is less than 0.01 µM.

`O=C1N(CCCc2ccccc2)C(Cc2ccccc2)C(O)C(O)C(Cc2ccccc2)N1CCCc1ccccc1` (centres unmarked) [Example 2B]: the inhibitory constant (Ki) was in the range of 0.01 to 1 µM.

Take `C=CCN1C(=O)N(CC=C(C)C)C(Cc2ccccc2)C(O)C(O)C1Cc1ccccc1` (centres unmarked) [Example 2C]: the Ki is less than 0.01 µM.

For `C=CCN1C(=O)N(Cc2ccccc2)C(Cc2ccccc2)C(O)C(O)C1Cc1ccccc1` (centres unmarked) [Example 2G], the Ki is less than 0.01 µM.

A further data set concerns HIV-1 (RF) in MT-2 cells. Kind of data set: microbe, parasite or virus in culture. It counts as cell-based. Conditions: Human immunodeficiency virus 1, MT2, Table 1c; read-out: IC90. In a few lines: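 Read-out: gag and pol viral RNA captured by 5′-biotinylated oligonucleotides on streptavidin-coated wells, detected with alkaline phosphatase-linked reporter oligonucleotides, calibrated against BH10 in vitro transcripts. Virus stocks (RF, MN, IIIB) come from H9 cultures; MT-2 host cells kept in RPMI 1640, 5% FCS.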
As a reminder, the IC90 is the concentration needed for an effect of 90%. Take `N#CN=C1N(CC2CCC2)C(Cc2ccccc2)C(O)C(O)C(Cc2ccccc2)N1CC1CCC1` (centres unmarked) [Example 1CK]: the IC90 is less than 10 mg/L.

On to `CCCN1C(=NC#N)N(CCC)C(Cc2ccccc2)C(O)C(O)C1Cc1ccccc1` (centres unmarked) [Example 1CL], for which the IC90 was less than 10 mg/L.

In the case of `CC(C)CCN1C(=NC#N)N(CCC(C)C)C(Cc2ccccc2)C(O)C(O)C1Cc1ccccc1` (centres unmarked) [Example 1CM], the concentration for an effect of 90% (IC90) is less than 10 mg/L.

On to `N#CN=C1N(Cc2ccc(CO)cc2)C(Cc2ccccc2)C(O)C(O)C(Cc2ccccc2)N1Cc1ccc(CO)cc1` (centres unmarked) [Example 1CN], for which the 90% effect concentration (IC90) was less than 10 mg/L.

Take `N#CN=C1N(Cc2cccc(CO)c2)C(Cc2ccccc2)C(O)C(O)C(Cc2ccccc2)N1Cc1cccc(CO)c1` (centres unmarked) [Example 1CO]: the concentration for an effect of 90% (IC90) is less than 10 mg/L.

Consider `N#CN=C1N(Cc2cccc(C=NO)c2)C(Cc2ccccc2)C(O)C(O)C(Cc2ccccc2)N1Cc1cccc(C=NO)c1` (centres unmarked) [Example 1CQ], for which the IC90 is less than 10 mg/L.

The data set is the same for the next values; noted with them: Human immunodeficiency virus 1, MT2, Table 2A; read-out: IC90.
As to `CC(C)=CCN1C(=O)N(CC=C(C)C)C(Cc2ccccc2)C(O)C(O)C1Cc1ccccc1` (centres unmarked) [Example 2A], the IC90 was less than 10 mg/L.

As for `O=C1N(CCCc2ccccc2)C(Cc2ccccc2)C(O)C(O)C(Cc2ccccc2)N1CCCc1ccccc1` (centres unmarked) [Example 2B], the IC90 was less than 10 mg/L.

With `C=CCN1C(=O)N(CC=C(C)C)C(Cc2ccccc2)C(O)C(O)C1Cc1ccccc1` (centres unmarked) [Example 2C], the IC90 is less than 10 mg/L.

For `C=CCN1C(=O)N(Cc2ccccc2)C(Cc2ccccc2)C(O)C(O)C1Cc1ccccc1` (centres unmarked) [Example 2G], the IC90 is less than 10 mg/L.

The data set is the same for the next values; noted with them: Human immunodeficiency virus 1, MT2, second table headed Table 2A; read-out: IC90.
As for `CC(C)=CCN1C(=O)N(CC=C(C)C)C(Cc2ccccc2)C(O)C(O)C1Cc1ccccc1` (centres unmarked) [Example 2A], the IC90 was less than 10 mg/L.

Take `O=C1N(CCCc2ccccc2)C(Cc2ccccc2)C(O)C(O)C(Cc2ccccc2)N1CCCc1ccccc1` (centres unmarked) [Example 2B]: the IC90 was less than 10 mg/L.

On to `C=CCN1C(=O)N(CC=C(C)C)C(Cc2ccccc2)C(O)C(O)C1Cc1ccccc1` (centres unmarked) [Example 2C], for which the IC90 is less than 10 mg/L.

Turning to `C=CCN1C(=O)N(Cc2ccccc2)C(Cc2ccccc2)C(O)C(O)C1Cc1ccccc1` (centres unmarked) [Example 2G], the IC90 was less than 10 mg/L.

Test system in another data set: not given
Assay: not given
Details: not given
A word on the melting point: it is the temperature of the solid-liquid transition. Compound `N#CN=C1N(CC2CCC2)C(Cc2ccccc2)C(O)C(O)C(Cc2ccccc2)N1CC1CCC1` (centres unmarked) [Example 1CK] came in with a melting point of 235.5 °C.

The compound `CCCN1C(=NC#N)N(CCC)C(Cc2ccccc2)C(O)C(O)C1Cc1ccccc1` (centres unmarked) [Example 1CL] displayed a melting point of 216.6 °C.

In the case of `CC(C)CCN1C(=NC#N)N(CCC(C)C)C(Cc2ccccc2)C(O)C(O)C1Cc1ccccc1` (centres unmarked) [Example 1CM], the melting point amounted to 76.1 °C.

Compound `N#CN=C1N(Cc2ccc(CO)cc2)C(Cc2ccccc2)C(O)C(O)C(Cc2ccccc2)N1Cc1ccc(CO)cc1` (centres unmarked) [Example 1CN] registered a melting point of 100.9 °C.

`N#CN=C1N(Cc2cccc(CO)c2)C(Cc2ccccc2)C(O)C(O)C(Cc2ccccc2)N1Cc1cccc(CO)c1` (centres unmarked) [Example 1CO] returned a melting point of 193.8 °C.

`N#CN=C1N(Cc2cccc(C=NO)c2)C(Cc2ccccc2)C(O)C(O)C(Cc2ccccc2)N1Cc1cccc(C=NO)c1` (centres unmarked) [Example 1CQ]: the melting point turned out to be 121.2 °C.

In turn, `CC(C)=CCN1C(=O)N(CC=C(C)C)C(Cc2ccccc2)C(O)C(O)C1Cc1ccccc1` (centres unmarked) [Example 2A] yielded a melting point of 165.1 °C.

Take `O=C1N(CCCc2ccccc2)C(Cc2ccccc2)C(O)C(O)C(Cc2ccccc2)N1CCCc1ccccc1` (centres unmarked) [Example 2B]: the melting point came to 120.7 °C.

In turn, `C=CCN1C(=O)N(CC=C(C)C)C(Cc2ccccc2)C(O)C(O)C1Cc1ccccc1` (centres unmarked) [Example 2C] gave a melting point of 62 °C.

In turn, `C=CCN1C(=O)N(Cc2ccccc2)C(Cc2ccccc2)C(O)C(O)C1Cc1ccccc1` (centres unmarked) [Example 2G] displayed a melting point of 226.5 °C.

(Values after USRE37781E1, “Substituted cyclic carbonyls and derivatives thereof useful as retroviral protease inhibitors” (DuPont Pharmaceuticals Company, priority 1991, dated 2002).)
